# Columns and labels:
# in vivo [1] = settings: Beagle, dog, plasma, iv, 0.2 mg/kg
# in vivo [2] = settings: Beagle, dog, plasma, po, 3 mg/kg
# in vitro [3] = settings: dog, liver microsomes
# in vitro [4] = settings: dog, MDCK
# in vivo [5] = settings: Beagle, dog, plasma, iv, 0.2 mg/kg; remark: listed apart in the source
# in vivo [6] = settings: Beagle, dog, plasma, po, 3 mg/kg; remark: listed apart in the source
# in vivo [7] = settings: Beagle, dog, plasma, po, 3 mg/kg; remark: listed apart in the source
# in vivo [8] = settings: Beagle, dog, plasma, iv, 0.2 mg/kg; remark: listed apart in the source
# in vivo [9] = settings: Beagle, dog, po, 3 mg/kg
# in vivo [10] = settings: Beagle, dog, plasma, po, 3 mg/kg; remark: listed apart in the source
# in vivo [11] = settings: Beagle, dog, plasma, po, 3 mg/kg; remark: listed apart in the source
# in vivo [12] = settings: Beagle, dog, plasma, iv, 0.2 mg/kg; remark: listed apart in the source
# in vitro [13] = settings: dog, MDCK; remark: listed apart in the source
# in vivo [14] = settings: Beagle, dog, plasma, iv, 0.2 mg/kg; remark: listed apart in the source
smiles,measurement,setting,value
Cc1ccc2nc(CSc3nnc(NC(=O)Nc4cccc(C(F)(F)F)c4)s3)cc(=O)n2c1,Vd,in vivo [1],0.164 L/kg
same,half-life,in vivo [2],39 min
same,half-life,in vitro [3],9 min
same,Papp A→B,in vitro [4],0.14 ×10⁻⁶ cm/s
same,AUC(0-t),in vivo [5],748 ng·h/mL
same,AUC(0-inf),in vivo [6],1790 ng·h/mL
same,AUC(0-t),in vivo [7],1780 ng·h/mL
same,clearance,in vivo [8],4.43 mL/min/kg
same,bioavailability,in vivo [9],16%
same,Tmax,in vivo [10],45 min
same,Cmax,in vivo [11],1140 ng/mL
same,AUC(0-inf),in vivo [12],755 ng·h/mL
same,Papp B→A,in vitro [13],3.73 ×10⁻⁶ cm/s
same,half-life,in vivo [14],37.8 min
